Data: patent US9957428B2 (priority 2013, dated 2018)
Like-named read-outs stand apart in the source and are kept apart here.

Tests used:
[1] = type: physicochemical
[2] = type: physicochemical; remark: listed apart in the source

Structure (SMILES)	Kinematic Viscosity ([1]; Temp 0.0 °C) [cS]	Kinematic Viscosity ([1]; Temp 25.0 °C) [cS]	Kinematic Viscosity ([1]; Temp 30.0 °C) [cS]	Kinematic Viscosity ([1]; Temp 40.0 °C) [cS]	Kinematic Viscosity ([1]; Temp 50.0 °C) [cS]	Kinematic Viscosity ([1]; Temp 60.0 °C) [cS]	Cp ([2]; Temperature 15 ° C.)	Cp ([2]; Temperature 20 ° C.)	Cp ([2]; Temperature 25 ° C.)	Cp ([2]; Temperature 30 ° C.)	Cp ([2]; Temperature 35 ° C.)	Cp ([2]; Temperature 40 ° C.)	Vapor Pressure at 68° F.(20° C.) [mm Hg]
FC(=C(F)C(F)(F)F)N(C(F)(F)F)C(F)(F)F [Preparatory Example 1, 1,2,3,3,3-pentafluoro-N,N-bis(trifluoromethyl)prop-1-en-1-amine]	0.91	0.58	0.54	0.48	0.42	0.38	1.25 J/(g · ° C.)	1.27 J/(g · ° C.)	1.28 J/(g · ° C.)	1.30 J/(g · ° C.)	1.32 J/(g · ° C.)	1.34 J/(g · ° C.)	50.9
CCOC(F)(C(F)(F)C(F)(F)C(F)(F)F)C(F)(C(F)(F)F)C(F)(F)F (stereo not shown) [Novec 7500]							1.08 J/(g · ° C.)	1.09 J/(g · ° C.)	1.10 J/(g · ° C.)	1.11 J/(g · ° C.)	1.12 J/(g · ° C.)	1.13 J/(g · ° C.)	
FC(=C(F)C(F)(F)F)N(C(F)(F)F)C(F)(F)C(F)(F)F [Preparatory Example 5, 1,2,3,3,3-pentafluoro-N-(1,1,2,2,2-pentafluoroethyl)-N-(trifluoromethyl)prop-1-en-1-amine]							1.18 J/(g · ° C.)	1.20 J/(g · ° C.)	1.21 J/(g · ° C.)	1.22 J/(g · ° C.)	1.23 J/(g · ° C.)	1.24 J/(g · ° C.)	
F/C(=C(/F)C(F)(F)F)N1C(F)(F)C(F)(F)OC(F)(F)C1(F)F [Preparatory Example 2, 2,2,3,3,5,5,6,6-octafluoro-4-(1,2,3,3,3-pentafluoroprop-1-enyl)morpholine]							1.09 J/(g · ° C.)	1.10 J/(g · ° C.)	1.11 J/(g · ° C.)	1.12 J/(g · ° C.)	1.13 J/(g · ° C.)	1.14 J/(g · ° C.)	
